Paper PMC3409642 (Pharmaceutical research, 2012)
Values joined by “and” are separate entries in the source; they are usually repeats but may differ in a detail not shown here. Equal values may be shown once.

Molecular target: T1, UGT1A9 (Homo sapiens, UniProt O60656)
T1 sequence (O60656 26-530): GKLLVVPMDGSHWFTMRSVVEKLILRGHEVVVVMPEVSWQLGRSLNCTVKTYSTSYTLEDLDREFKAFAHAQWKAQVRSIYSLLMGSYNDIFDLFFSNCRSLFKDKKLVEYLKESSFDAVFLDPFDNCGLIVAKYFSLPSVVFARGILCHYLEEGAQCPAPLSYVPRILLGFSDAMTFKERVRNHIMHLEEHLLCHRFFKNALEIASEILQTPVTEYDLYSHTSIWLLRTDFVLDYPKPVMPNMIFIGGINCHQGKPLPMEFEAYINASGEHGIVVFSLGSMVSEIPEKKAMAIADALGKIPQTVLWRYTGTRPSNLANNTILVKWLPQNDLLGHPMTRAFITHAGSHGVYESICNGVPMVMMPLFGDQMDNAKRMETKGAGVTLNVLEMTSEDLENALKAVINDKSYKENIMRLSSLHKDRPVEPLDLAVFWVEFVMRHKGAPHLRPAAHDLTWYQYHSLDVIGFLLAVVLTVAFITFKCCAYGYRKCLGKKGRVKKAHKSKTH
Assay: Kinetic profiling of glucuronidation by expressed human UGT1A9
Conditions: for Log (CLint) (Actual): log of experimental CLint (μl/mg/min)

Row | Compound | Log (CLint) (Actual) | other results
1 | O=C(CCc1ccc(O)cc1)c1c(O)cc(O)cc1O [7.a, Phloretin] | 2.87 | Log (CLint) (Actual) (listed as 7.b): 3.17
2 | N#C/C(=C\c1ccc(O)c(O)c1)C(=O)NCc1ccccc1 [23.a, Tyrphostin B42] |  | Vmax (pH 7.4): 3677 pmol/mg/min and 2008 pmol/mg/min
3 | O=c1cc(-c2ccc(O)c(O)c2)oc2cc(O)ccc12 [41.a, 7,3′,4′-Trihydroxyflavone] | 3.08 | Log (CLint) (Actual) (listed as 41.b): 2.48; Log (CLint) (Actual) (listed as 41.c): 2.11
4 | O=c1cc(-c2ccc(O)c(O)c2)oc2cc(O)cc(O)c12 [56.a, Luteolin] | 3.58 | Log (CLint) (Actual) (listed as 56.b): 3.32
5 | O=c1c(O)c(-c2ccccc2)oc2cc(O)ccc12 [68.a, 3,7-Dihydroxyflavone] | 4.32 | Log (CLint) (Actual) (listed as 68.b): 3.13
6 | COc1ccc(-c2oc3cc(O)ccc3c(=O)c2O)cc1OC [69.a, 3,7-Dihydroxy-3′,4′-dimethoxyflavone] |  | Log (CLint) (Actual) (listed as 69.b): 1.00
7 | O=c1c(O)c(-c2ccc(O)c(O)c2)oc2cc(O)ccc12 [84.a, Fisetin] | 3.38 | Log (CLint) (Actual) (listed as 84.b): 3.55; Log (CLint) (Actual) (listed as 84.c): 3.49
8 | O=c1c(O)c(-c2ccc(O)cc2)oc2cc(O)cc(O)c12 [88.a, Kaempferol] | 3.78 | Log (CLint) (Actual) (listed as 88.b): 2.34
9 | O=c1c(O)c(-c2cc(O)c(O)c(O)c2)oc2cc(O)cc(O)c12 [90.a, Myricetin] | 2.90 | Log (CLint) (Actual) (listed as 90.b): 3.36; Log (CLint) (Actual) (listed as 90.c): 3.69
10 | O=c1c(O)c(-c2ccc(O)c(O)c2)oc2cc(O)cc(O)c12 [91.a, Quercetin] | 3.97 | Log (CLint) (Actual) (listed as 91.b): 3.32; Log (CLint) (Actual) (listed as 91.c): 3.65
11 | O=c1c(O)c(-c2ccc(O)cc2)oc2cc(O)ccc12 [92.a, Resokaempferol] | 3.86 | Log (CLint) (Actual) (listed as 92.b): 2.63
12 | COc1cc(-c2oc3cc(O)cc(O)c3c(=O)c2O)cc(OC)c1O [94.a, Syringetin] | 3.87 | Log (CLint) (Actual) (listed as 94.b): 2.26
13 | Nc1ccc(C(=O)O)c(O)c1 [aminosalicylic acid, reference compound] |  | glucuronide metabolite formation on incubation with UGT1A9 (non-substrate) (incubating compound with UGT1A9): no metabolite can be detected
14 | Oc1cc(O)c2c(c1)O[C@H](c1cc(O)c(O)c(O)c1)[C@H](O)C2 [compound 2, (−)-Epigallocatechin] | 1.58 | 
15 | O=C(/C=C/c1ccc(O)cc1)c1ccccc1 [compound 4, 4-Hydroxychalcone] | 1.53 | 
16 | O=C(/C=C/c1ccccc1)c1ccc(O)cc1 [compound 6, 4′-Hydroxychalcone] | 2.29 | 
17 | O=c1ccoc2cc(O)ccc12 [compound 8, 7-Hydroxychromone] | 0.91 | 

Row | Compound | Log (CLint) (Actual) | other results
18 | Cc1ccc2oc(=O)cc(O)c2c1 [compound 11, 4-Hydroxy-6-methylcoumarin] | 0.59 | 
19 | CC(=O)CC(c1ccccc1)c1c(O)c2cccc(O)c2oc1=O (centres unmarked) [compound 13, 8-Hydroxywarfarin] | 1.40 | 
20 | COc1cc(/C=C/C(=O)CC(=O)/C=C/c2ccc(O)c(OC)c2)ccc1O [compound 15, Curcumin] | 1.74 | 
21 | O=C(/C=C/c1ccc(O)cc1)CC(=O)/C=C/c1ccc(O)cc1 [compound 17, Bisdemethoxycurcumin] | 0.90 | 
22 | CC/C(=C(\c1ccc(O)cc1)c1ccc(OCCNC)cc1)c1ccccc1 [compound 19, Endoxifen] | 0.82 | 
23 | COc1ccc(-c2oc3cc(O)cc(O)c3c(=O)c2OC)cc1O [compound 29, 3,4′-Dimethoxy-5,7,3′-trihydroxyflavone] | 3.66 | 
24 | O=c1cc(-c2ccc(O)c(O)c2)oc2ccc(O)cc12 [compound 35, 6,3′,4′-Trihydroxyflavone] | 3.54 | 
25 | COc1c(O)cc2oc(-c3ccc(O)c(O)c3)cc(=O)c2c1O [compound 39, 6-Methoxyluteolin] | 3.22 | 
26 | O=c1cc(-c2ccccc2O)oc2cc(O)ccc12 [compound 42, 7,2′-Dihydroxyflavone] | 2.77 | 
27 | O=c1cc(-c2cccc(O)c2)oc2cc(O)ccc12 [compound 43, 7,3′-Dihydroxyflavone] | 2.74 | 
28 | COc1ccccc1-c1cc(=O)c2ccc(O)cc2o1 [compound 44, 7-Hydroxy-2′-methoxyflavone] | 3.00 | 
29 | COc1ccc(-c2cc(=O)c3ccc(O)cc3o2)cc1 [compound 47, 7-Hydroxy-4′-methoxyflavone] | 2.36 | 
30 | O=c1cc(-c2ccccc2)oc2cc(O)ccc12 [compound 49, 7-Hydroxyflavone] | 3.13 | 
31 | COc1c(O)cc(O)c2c(=O)cc(-c3ccccc3)oc12 [compound 58, Wogonin] | 3.60 | 
32 | O=c1c(O)c(-c2cccc(O)c2)oc2ccccc12 [compound 60, 3,3′-Dihydroxyflavone] | 4.44 | 
33 | O=c1c(O)c(-c2ccc(O)cc2)oc2ccc(O)cc12 [compound 62, 3,6,4′-Trihydroxyflavone] | 4.34 | 
34 | Cc1ccc2oc(-c3ccccc3)c(O)c(=O)c2c1 [compound 66, 3-Hydroxy-6-methylflavone] | 5.04 | 

Continued, in another order:

Row | Log (CLint) (Actual) | Compound | other results
35 | 3.66 | COc1cc(-c2oc3cc(O)ccc3c(=O)c2O)cc(OC)c1OC [67.a, 3,7-Dihydroxy-3′,4′,5′-trimethoxyflavone] | 
36 | 1.04 | O=C(O)/C=C/c1ccc(O)c(O)c1 [97.a, Caffeic Acid] | Log (CLint) (Actual) (listed as 97.b): 0.30
37 | 3.38 | O=C(/C=C/c1ccccc1O)c1ccccc1 [compound 3, 2-Hydroxychalcone] | 
38 | 1.61 | O=c1oc2cc(O)ccc2c(-c2ccccc2)c1-c1ccccc1 [compound 9, 3,4-Diphenyl-7-hydroxycoumarin] | 
39 | 2.48 | Cc1cc(=O)oc2cc(O)ccc12 [compound 10, 4-Methylumbelliferone] | 
40 | 1.07 | COc1cc2oc(=O)cc(-c3ccccc3)c2cc1O [compound 12, 6-Hydroxy-7-methoxyl-4-phenylcoumarin] | 
41 | 2.28 | COc1cc2ccc(=O)oc2cc1O [compound 14, Scopoletin] | 
42 | 1.14 | COc1cc(/C=C/C(O)=C/C(=O)/C=C/c2ccc(O)cc2)ccc1O [compound 16, Demethoxycurcumin] | 
43 | 1.96 | O=C1OC[C@H](Cc2cccc(O)c2)[C@H]1Cc1cccc(O)c1 [compound 20, Enterolactone] | 
44 | 1.31 | O=C(c1ccc(OCCN2CCCCC2)cc1)c1c(-c2ccc(O)cc2)sc2cc(O)ccc12 [compound 22, Raloxifene, reference compound] | 
45 | 3.18 | O=C1C[C@@H](c2ccc(O)cc2)Oc2cc(O)cc(O)c21 [compound 27, Narigenin] | Km (human, expressed human UGT1A9 (Supersomes), pH 7.4): 3.34 µM
46 | 2.27 | O=c1cc(-c2ccccc2O)oc2ccccc12 [compound 28, 2′-Hydroxyflavone] | 
47 | 3.22 | COc1ccc(-c2oc3cc(O)cc(O)c3c(=O)c2OC)cc1OCc1ccccc1 [compound 30, 3′-Benzyloxy-5,7-dihydroxy-3,4′-dimethoxyflavone] | 
48 | 2.66 | O=c1cc(-c2cccc(O)c2)oc2ccccc12 [compound 31, 3′-Hydroxyflavone] | 
49 | 1.83 | O=c1cc(-c2ccc(O)cc2)oc2ccccc12 [compound 32, 4′-Hydroxyflavone] | 
50 | 2.93 | COc1cc(-c2cc(=O)c3c(O)cc(O)cc3o2)cc(OC)c1OC [compound 33, 5,7-Dihydroxy-3′,4′,5′-trimethoxyflavone] | 
51 | 2.96 | O=c1cc(-c2ccccc2)oc2cc(O)c(O)cc12 [compound 37, 6,7-Dihydroxyflavone] | 
52 | 1.53 | O=c1cc(-c2ccccc2)oc2ccc(O)cc12 [compound 38, 6-Hydroxyflavone] | 
53 | 3.57 | O=c1cc(-c2ccccc2O)oc2cc(O)cc(O)c12 [compound 40, 5,7,2′-Trihydroxyflavone] | 
54 | 3.30 | Cc1c(-c2ccccc2)oc2cc(O)ccc2c1=O [compound 45, 7-Hydroxy-3-methylflavone] | 
55 | 1.89 | O=c1c(O)c(-c2ccccc2O)oc2ccccc12 [compound 59, 3,2′-Dihydroxyflavone] | 
56 | 3.87 | O=c1c(O)c(-c2ccccc2)oc2cccc(O)c12 [compound 61, 3,5-Dihydroxyflavone] | 
57 | 4.34 | O=c1c(O)c(-c2ccc(O)c(O)c2)oc2ccccc12 [compound 63, 3,3′,4′-Trihydroxyflavone] | 
58 | 3.92 | COc1cccc(-c2oc3ccccc3c(=O)c2O)c1OC [compound 71, 3-Hydroxy-2′,3′-dimethoxyflavone] | 
